# Source: patent US11951178B2, “Methods for treating subjects suffering from acute myeloid leukemia with FLT3 ligand-targeted miR-150 nanoparticles” (University of Cincinnati, priority 2016, dated 2024)
# Tests used:
# [1] = Blood cell counts of normal mice after nanoparticle/drug administration (effects on normal hematopoiesis)
# Procedure: FIG. 12 provides an analysis of the potential influence of the nanoparticles on hematopoietic system in normal mice, C57BL/6 wild type mice were treated with 0.5 mg/kg PBS (Control/Ctrl), G7-NH2, G7-Flt3L, G7-NH2-miR-150 or G7-Flt3L-miR-150, i.v., every other day, for ten times. Mice were sacrificed 12 weeks after the last administration, subsequent Wright-Giemsa stained PB and BM, and H&E stained spleen and liver of the animals are shown.
# [2] = tested on: primary MLL-AF9 AML cells; test: MLL-AF9 AML secondary BMT recipient mouse model; assay type: in vivo; conditions: MLL-AF9 AML mice; nanoparticles 0.5 mg/kg i.v., JQ1 50 mg/kg i.p., every other day; PBS control 54 days
# Procedure: The same MLL-AF9 AML mouse model was employed. […] All the P values were detected by log-rank test.
# After the onset of secondary AML, the recipient mice were treated with PBS control, 0.5 mg/kg G7-NH2-miR-150, or G7-Flt3L-miR-150, i.v., every other day, until the PBS-treated control group all died of leukemia.
# For the JQ1 and nanoparticle combination treatment experiment, after the onset of AML, the recipient mice were treated with PBS control, or 50 mg/kg JQ1, i.p., alone, or together with 0.5 mg/kg G7-NH2-miR-150, or G7-Flt3L-miR-150, i.v., every other day, until the PBS-treated control group all died of leukemia.
# The in vivo therapeutic effects of the miR-150 nanoparticles were also investigated in a MLL-rearranged leukemic mouse model.
# [3] = normal C57BL/6 mice, 50 mg/kg JQ1 and/or 0.5 mg/kg nanoparticles, i.v., every day for 15 days, 4 weeks after the last administration
compound,measurement,setting,value
Cc1sc2c(c1C)C(c1ccc(Cl)cc1)=N[C@@H](CC(=O)OC(C)(C)C)c1nnc(C)n1-2 [JQ1],BA,[1]; [3],0.01 ± 0.0 K/μl
same,EO,[1]; [3],0.04 ± 0.04 K/μl
same,LY,[1]; [3],5.57 ± 0.83 K/μl
same,MO,[1]; [3],0.36 ± 0.32 K/μl
same,NE,[1]; [3],1.2 ± 0.62 K/μl
same,PLT,[1]; [3],688 ± 110.3 K/μl
same,RBC,[1]; [3],8.12 ± 1.13 M/μl
same,WBC,[1]; [3],7.18 ± 0.76 K/μl
same,noticeable (side) effects on normal hematopoiesis,[1]; normal mice in vivo,did not cause any noticeable side effects
same,median survival,[2],69.5 days
